Laboratory results from EP1707197A1 (TEVA PHARMACEUTICAL INDUSTRIES LTD., priority 2005, dated 2006).

Assay: small volume in vitro release test in 50 ml 0.1N HCl
Assay type: physicochemical
Details: 37° C, 150 rpm
Procedure: The formulations were tested for their small volume in vitro release characteristics in 50 ml 0.1N HCl at 37° C and 150 rpm using the following procedure:
• a. Automated Dissolution System comprising: • Hanson SR8 Plus Test Station • Hanson Auto Plus Maximiser System Controller • Hanson Auto Plus MultiFill Fraction Collector • b. HPLC System comprising: • pump - Merck Hitachi L-7100 • autoinjector - Merck Hitachi L-7200 • column oven - Merck Hitachi L-7300 • detector - Merck Hitachi L-7400 • interface and integration software - Merck Hitachi D-7000
Place one weighed capsule in each vessel containing 0.1N HCl and immediately operate the apparatus for 30 min. Unless otherwise specified, 3 ml samples are withdrawn from each vessel and immediately filtered through PTFE membranes at 15 and 30 min.
The small volume was chosen as a model of the conditions in a fasted stomach.

% dissolved 15 min (15 min): 0%
% dissolved 30 min (30 min): 0%
Compound: CC(C)OC(=O)C(C)(C)Oc1ccc(C(=O)c2ccc(Cl)cc2)cc1 [Micronized Fenofibrate, 2-[4-(4-chlorobenzoyl)phenoxy]-2-methyl-propanoic acid, 1-methylethyl ester]
